For 14 substances, target mRNA knockdown results are on record in the OligoGym collection.

HELM strings list units from the 5' end as sugar, base in round brackets, then linkage (d deoxyribose, r ribose, m 2'-O-methyl, p phosphodiester). Strings are as the collection lists them, not checked against the first reports. ss, as = sense and antisense strand; [fl2r] = 2'-fluoro
Also: test system not given here.

For the series the following is noted: siRNA.
In turn, “RNA1{r(A)p.r(G)p.r(A)p.r(G)p.r(A)p.r(A)p.r(G)p.r(G)p.r(G)p.[fl2r](C)p.r(G)p.r(U)p.r(C)p.r(U)p.r(C)p.[fl2r](U)p.r(A)p.[fl2r](C)p.r(A)p.r(T)p.r(T)}|RNA2{[fl2r](U)p.r(G)p.[fl2r](U)p.r(A)p.r(G)p.r(A)p.r(G)p.r(A)p.r(C)p.r(G)p.r(C)p.r(C)p.r(C)p.r(U)p.r(U)p.r(C)p.r(U)p.r(C)p.r(U)p.r(T)p.r(T)}$$$RNA1{StrandType:ss}|RNA2{StrandType:as}$” showed a target mRNA knockdown of 71%.
The result for “RNA1{r(A)p.r(G)p.r(A)p.r(G)p.r(A)p.r(A)p.r(G)p.r(G)p.r(G)p.r(C)p.r(G)p.r(U)p.r(C)p.r(U)p.r(C)p.r(U)p.[fl2r](A)p.r(C)p.r(A)p.r(T)p.r(T)}|RNA2{r(U)p.r(G)p.[fl2r](U)p.r(A)p.r(G)p.r(A)p.r(G)p.r(A)p.r(C)p.r(G)p.r(C)p.r(C)p.r(C)p.r(U)p.r(U)p.r(C)p.r(U)p.r(C)p.r(U)p.r(T)p.r(T)}$$$RNA1{StrandType:ss}|RNA2{StrandType:as}$” reads 69%; that for “RNA1{r(A)p.r(G)p.r(A)p.r(G)p.r(A)p.r(G)p.r(G)p.[fl2r](U)p.r(G)p.r(G)p.r(A)p.r(G)p.r(G)p.[fl2r](U)p.r(A)p.r(U)p.r(C)p.[fl2r](U)p.r(C)p.r(T)p.r(T)}|RNA2{r(G)p.r(A)p.r(G)p.r(A)p.[fl2r](U)p.r(A)p.r(C)p.r(C)p.r(U)p.r(C)p.[fl2r](C)p.[fl2r](A)p.r(C)p.r(C)p.r(U)p.r(C)p.r(U)p.r(C)p.r(U)p.r(T)p.r(T)}$$$RNA1{StrandType:ss}|RNA2{StrandType:as}$”, 85%.
The result for “RNA1{r(A)p.r(G)p.r(A)p.r(G)p.r(A)p.r(G)p.r(G)p.[fl2r](U)p.r(G)p.r(G)p.r(A)p.r(G)p.r(G)p.r(U)p.r(A)p.r(U)p.r(C)p.r(U)p.r(C)p.r(T)p.r(T)}|RNA2{r(G)p.r(A)p.r(G)p.r(A)p.[fl2r](U)p.r(A)p.r(C)p.r(C)p.r(U)p.r(C)p.r(C)p.r(A)p.r(C)p.r(C)p.r(U)p.r(C)p.r(U)p.r(C)p.r(U)p.r(T)p.r(T)}$$$RNA1{StrandType:ss}|RNA2{StrandType:as}$” reads 88%.
The result for “RNA1{r(A)p.r(G)p.r(A)p.r(G)p.r(A)p.r(G)p.r(G)p.r(U)p.r(G)p.r(G)p.r(A)p.r(G)p.r(G)p.m(U)p.r(A)p.r(U)p.r(C)p.r(U)p.r(C)p.r(T)p.r(T)}|RNA2{r(G)p.r(A)p.r(G)p.r(A)p.m(U)p.r(A)p.r(C)p.r(C)p.r(U)p.r(C)p.r(C)p.r(A)p.r(C)p.r(C)p.r(U)p.r(C)p.r(U)p.r(C)p.r(U)p.r(T)p.r(T)}$$$RNA1{StrandType:ss}|RNA2{StrandType:as}$” reads 90%; that for “RNA1{r(A)p.r(G)p.r(A)p.r(G)p.r(G)p.r(A)p.r(C)p.r(C)p.m(U)p.r(A)p.r(G)p.r(A)p.r(A)p.r(G)p.r(G)p.r(C)p.r(G)p.r(G)p.r(C)p.r(T)p.r(T)}|RNA2{r(G)p.r(C)p.r(C)p.r(G)p.r(C)p.r(C)p.m(U)p.m(U)p.r(C)p.m(U)p.r(A)p.r(G)p.r(G)p.m(U)p.r(C)p.r(C)p.m(U)p.r(C)p.m(U)p.r(T)p.r(T)}$$$RNA1{StrandType:ss}|RNA2{StrandType:as}$”, 72%.
Regarding “RNA1{r(A)p.r(G)p.r(A)p.r(G)p.r(G)p.r(A)p.r(C)p.r(C)p.m(U)p.r(A)p.r(G)p.r(A)p.r(A)p.r(G)p.r(G)p.r(C)p.r(G)p.r(G)p.r(C)p.r(T)p.r(T)}|RNA2{r(G)p.r(C)p.r(C)p.r(G)p.r(C)p.r(C)p.r(U)p.r(U)p.r(C)p.m(U)p.r(A)p.r(G)p.r(G)p.r(U)p.r(C)p.r(C)p.r(U)p.r(C)p.r(U)p.r(T)p.r(T)}$$$RNA1{StrandType:ss}|RNA2{StrandType:as}$”, the target mRNA knockdown was determined as 89%.
With “RNA1{r(A)p.r(G)p.r(A)p.r(G)p.r(G)p.r(A)p.r(C)p.r(C)p.r(U)p.m(A)p.r(G)p.r(A)p.r(A)p.r(G)p.r(G)p.r(C)p.r(G)p.r(G)p.r(C)p.r(T)p.r(T)}|RNA2{r(G)p.r(C)p.r(C)p.r(G)p.r(C)p.r(C)p.r(U)p.r(U)p.r(C)p.r(U)p.r(A)p.r(G)p.r(G)p.r(U)p.r(C)p.r(C)p.r(U)p.r(C)p.r(U)p.r(T)p.r(T)}$$$RNA1{StrandType:ss}|RNA2{StrandType:as}$” the figure was 92%; with “RNA1{r(A)p.r(G)p.r(A)p.r(G)p.r(U)p.m(U)p.r(G)p.r(G)p.r(G)p.r(A)p.r(U)p.m(U)p.r(A)p.r(G)p.r(G)p.r(G)p.r(C)p.r(U)p.r(U)p.r(T)p.r(T)}|RNA2{r(A)p.r(A)p.r(G)p.r(C)p.r(C)p.r(C)p.m(U)p.r(A)p.r(A)p.r(U)p.r(C)p.r(C)p.m(C)p.r(A)p.r(A)p.r(C)p.r(U)p.r(C)p.r(U)p.r(T)p.r(T)}$$$RNA1{StrandType:ss}|RNA2{StrandType:as}$”, 68%; with “RNA1{r(A)p.r(G)p.r(A)p.r(G)p.r(U)p.r(U)p.r(G)p.r(G)p.r(G)p.r(A)p.r(U)p.r(U)p.r(A)p.r(G)p.r(G)p.r(G)p.r(C)p.r(U)p.r(U)p.r(T)p.r(T)}|RNA2{m(A)p.r(A)p.m(G)p.r(C)p.m(C)p.r(C)p.m(U)p.r(A)p.m(A)p.r(U)p.m(C)p.r(C)p.m(C)p.r(A)p.m(A)p.r(C)p.m(U)p.r(C)p.m(U)p.r(T)p.r(T)}$$$RNA1{StrandType:ss}|RNA2{StrandType:as}$”, 45%.
For “RNA1{r(A)p.r(G)p.r(A)p.r(G)p.r(U)p.r(U)p.r(G)p.r(G)p.r(G)p.r(A)p.r(U)p.r(U)p.r(A)p.r(G)p.r(G)p.r(G)p.r(C)p.r(U)p.r(U)p.r(T)p.r(T)}|RNA2{r(A)p.r(A)p.r(G)p.r(C)p.r(C)p.r(C)p.m(U)p.r(A)p.r(A)p.r(U)p.r(C)p.r(C)p.r(C)p.r(A)p.r(A)p.r(C)p.r(U)p.r(C)p.r(U)p.r(T)p.r(T)}$$$RNA1{StrandType:ss}|RNA2{StrandType:as}$”, the target mRNA knockdown worked out at 69%.
With “RNA1{r(A)p.r(G)p.r(A)p.r(U)p.r(G)p.r(U)p.r(U)p.r(C)p.r(U)p.r(C)p.r(G)p.r(U)p.r(A)p.r(A)p.r(G)p.r(G)p.r(A)p.r(C)p.r(G)p.r(T)p.r(T)}|RNA2{r(C)p.r(G)p.r(U)p.r(C)p.r(C)p.r(U)p.m(U)p.r(A)p.r(C)p.r(G)p.r(A)p.r(G)p.r(A)p.r(A)p.r(C)p.r(A)p.r(U)p.r(C)p.r(U)p.r(T)p.r(T)}$$$RNA1{StrandType:ss}|RNA2{StrandType:as}$” the figure was 69%; with “RNA1{r(A)p.r(G)p.r(C)p.m(C)p.r(A)p.m(C)p.r(A)p.r(U)p.r(U)p.r(U)p.r(C)p.m(U)p.r(A)p.r(G)p.r(G)p.r(A)p.r(G)p.r(A)p.r(U)p.r(T)p.r(T)}|RNA2{r(A)p.r(U)p.r(C)p.r(U)p.r(C)p.r(C)p.m(U)p.r(A)p.m(G)p.r(A)p.r(A)p.r(A)p.r(U)p.r(G)p.m(U)p.r(G)p.r(G)p.r(C)p.r(U)p.r(T)p.r(T)}$$$RNA1{StrandType:ss}|RNA2{StrandType:as}$”, 26%.
With “RNA1{r(A)p.r(G)p.r(C)p.m(C)p.r(A)p.r(C)p.r(A)p.r(U)p.r(U)p.r(U)p.r(C)p.r(U)p.m(A)p.r(G)p.r(G)p.r(A)p.r(G)p.r(A)p.r(U)p.r(T)p.r(T)}|RNA2{r(A)p.r(U)p.r(C)p.r(U)p.r(C)p.r(C)p.r(U)p.r(A)p.r(G)p.r(A)p.r(A)p.r(A)p.m(U)p.r(G)p.r(U)p.r(G)p.r(G)p.r(C)p.r(U)p.r(T)p.r(T)}$$$RNA1{StrandType:ss}|RNA2{StrandType:as}$” the figure was 29%.
